Results published in patent US20190224214A1, “HUMAN GHRELIN O-ACYLTRANSFERASE INHIBITORS” (SYRACUSE UNIVERSITY, priority 2016, published 2019).
Where two headings read alike, the source gives them in different places. Values belong to the compound of their own block, whether it stands above or below them.

Tests used:
hGOAT [1] = target: T1, hGOAT (Homo sapiens, UniProt Q96T53); experiment: fluorescence-based in vitro hGOAT activity assay (ghrelin octanoylation, HPLC readout); type: biochemical
T1 construct: made in house; host or cells: Sf9 insect cells (membrane fraction)
T1 sequence (Q96T53 1-435): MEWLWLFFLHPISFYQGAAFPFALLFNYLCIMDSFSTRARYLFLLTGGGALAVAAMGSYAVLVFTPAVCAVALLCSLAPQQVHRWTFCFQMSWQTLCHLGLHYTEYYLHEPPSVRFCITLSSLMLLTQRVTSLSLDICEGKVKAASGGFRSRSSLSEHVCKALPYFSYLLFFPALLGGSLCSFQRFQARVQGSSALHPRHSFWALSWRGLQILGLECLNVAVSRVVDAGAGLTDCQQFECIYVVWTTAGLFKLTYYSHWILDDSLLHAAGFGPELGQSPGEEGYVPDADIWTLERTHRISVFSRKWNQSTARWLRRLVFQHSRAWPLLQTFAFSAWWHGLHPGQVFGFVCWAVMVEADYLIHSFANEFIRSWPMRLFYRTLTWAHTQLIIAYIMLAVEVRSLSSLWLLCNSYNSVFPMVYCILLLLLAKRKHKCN
Procedure: hGOAT was expressed and enriched in insect (Sf9) cell membrane fractions using a previously published procedure.
Peptide substrates were labeled with acrylodan on a cysteine thiol and HPLC purified as previously reported.
hGOAT activity assays were performed using a modification of previously reported protocols. For each assay, membrane fraction from Sf9 cells expressing hGOAT was thawed on ice and passed through an 18-gauge needle 10 times to homogenize. Assays were performed with ˜100 μg of membrane protein, as determined by Bradford assay. Membrane fraction was preincubated with 1 μM methoxy arachadonyl fluorophosphonate (MAFP) and inhibitor or vehicle as indicated in 50 mM HEPES pH 7.0 for 30 minutes at room temperature. Reactions were initiated with the addition of 500 µM octanoyl CoA and 1.5 μM fluorescently-labeled ghrelin mimetic, GSSFLCAcrylodan, for a total volume of 50 μL, and were incubated for 3 hours at room temperature in the dark. Reactions were stopped with the addition of 50 μL of 20% acetic acid in isopropanol, and solutions were clarified by protein precipitation with 16.7 μL of 20% trichloroacetic acid, followed by centrifugation (1,000×g, 1 minute). The supernatant was then analyzed by reverse phase HPLC, as previously described. Data reported are the average of three independent determinations, with error bars representing one standard deviation.
For inhibition experiments, reactions were performed and analyzed as described in the presence of either inhibitor or vehicle (DMSO or ethanol) as appropriate. The percent activity at each inhibitor concentration calculated from HPLC data using equations 1 and 2: […]
To determine the IC50 value, the plot of % activity versus [inhibitor] was fit to equation 3, with % activity0 denoting hGOAT activity in the presence of the vehicle alone: […]

hGOAT [2] = target: T1, hGOAT; experiment: Inhibitor reversibility assay (10-fold dilution after pretreatment at 3x IC50); type: biochemical; conditions: pretreatment at 3x IC50, then 10-fold dilution
Procedure: The reversibility of hGOAT inhibition by the α-cyanoenone compounds 3 and 9 was determined by enzyme pretreatment with each inhibitor at three times the measured IC50 concentration, followed by a 10-fold dilution into either reaction buffer or buffer containing the same inhibitor concentration as the pretreatment.
Undiluted homogenized membrane protein fraction containing hGOAT (protein concentration ˜7 μg/μL) was incubated with 10 μM MAFP and 3×IC50 of inhibitor or equal volume vehicle (DMSO or ethanol) for 30 minutes at room temperature. […] Reactions were incubated for 3 hours at room temperature in the dark and then analyzed as described above.

[3] = read-out: IC50, inhibition of hGOAT activity
[4] = hGOAT activity, individual trials, read-out: IC50 (individual trials)
[5] = hGOAT activity, averaged, read-out: IC50 (averaged)
[6] = unit inferred, read-out: IC50, inhibition of hGOAT

- IC50 (hGOAT [1]; [3]): 8 ± 4 µM
- reversibility of hGOAT inhibition (hGOAT [2]): reversible hGOAT inhibition
SMILES: CCNC(=O)[C@]12CCC(C)(C)C[C@H]1[C@H]1C(=O)C=C3[C@@]4(C)C=C(C#N)C(=O)C(C)(C)[C@@H]4CC[C@@]3(C)[C@]1(C)CC2 [CDDO-EA]

SMILES: CC1(C)CC[C@]2(C(=O)n3ccnc3)CC[C@]3(C)[C@H](C(=O)C=C4[C@@]5(C)C=C(C#N)C(=O)C(C)(C)[C@@H]5CC[C@]43C)[C@@H]2C1 [CDDO-Im, 1[2-cyano-3,12-dioxooleana-1,9-dien-28-oyl]imidazole, reference compound]
- IC50 (hGOAT [1]; [3]): 38 ± 6 µM

SMILES: COC(=O)[C@]12CCC(C)(C)C[C@H]1[C@H]1C(=O)C=C3[C@@]4(C)C=C(C#N)C(=O)C(C)(C)[C@@H]4CC[C@@]3(C)[C@]1(C)CC2 [CDDO-Me, methyl 2-cyano-3,12-dioxooleana-1,9(11)dien-28-oate, reference compound]
- inhibition of hGOAT octanoylation activity (in words) (hGOAT [1]): exhibits inhibitory activity against hGOAT

- inhibition of hGOAT octanoylation activity (in words) (hGOAT [1]): lack of inhibition activity
SMILES: CC1(C)CC[C@]2(C(=O)O)CC[C@]3(C)[C@H](C(=O)C=C4[C@@]5(C)C=C(C#N)C(=O)C(C)(C)[C@@H]5CC[C@]43C)[C@@H]2C1 [Compound 5, reference compound]

SMILES: C[C@@]12CCC[C@H]1[C@@H]1CC[C@H]3CC(=O)C(C#N)=C[C@]3(C)[C@H]1CC2 [Compound 9, (5S,8S,9S,10S,13S,14S)-10,13-dimethyl-3-oxo-4,5,6,7,8,9,10,11,12,13,14,15,16,17-tetradecahydro-3H-cyclopenta[a]phenanthrene-2-carbonitrile]
- IC50 (hGOAT [1]; [4]): 7 ± 3 µM
- IC50 (hGOAT [1]; [3]): 8 ± 2 µM
- enhancement of inhibitor potency against hGOAT by the steroid scaffold (hGOAT [1]; α-cyanoenone 9 versus 16): ~150 fold
- reversibility of hGOAT inhibition (hGOAT [2]): reversible hGOAT inhibition

SMILES: C[C@@]12CCC[C@H]1[C@@H]1CC[C@H]3CC(=O)C(Br)=C[C@]3(C)[C@H]1CC2 [Compound 10, (5 S,8S,9S,10S,13S,14S)-10,13-dimethyl-3-oxo-4,5,6,7,8,9,10,11,12,13,14,15,16,17-tetradecahydro-3H-cyclopenta[a]phenanthrene-2-bromide]
- IC50 (hGOAT [1]; [5]): 83 ± 29 µM
- IC50 (hGOAT [1]; [4]): 84 ± 35 µM
- melting point: 111 to 116 °C

SMILES: C[C@@]12CCC[C@H]1[C@@H]1CC[C@H]3CC(=O)C=C[C@]3(C)[C@H]1CC2 [Compound 11, (2R,5S,8S,9S,10S,13S,14S)-10,13-dimethyl-4,5,6,7,8,9,10,11,12,13,14,15,16,17-tetradecahydro-3H-cyclopenta[a]phenanthren-3-one]
- IC50 (hGOAT [1]; [5]): 166 ± 58 µM
- IC50 (hGOAT [1]; [4]): 201 ± 107 µM
- IC50 (hGOAT [1]; [6]): 170 ± 60 µM

SMILES: C[C@@]12CCC[C@H]1[C@@H]1CC[C@H]3CC(=O)CC[C@]3(C)[C@H]1CC2 [Compound 12, (5S,8S,9S,10S,13S,14S)-10,13-dimethyltetradecahydro-1H-cyclopenta[a]phenanthren-3(2H)-one]
- inhibition of hGOAT octanoylation activity (in words) (hGOAT [1]): loss of inhibition

SMILES: C[C@@]12CCC[C@H]1[C@@H]1CC[C@H]3CC(=O)[C@H](Br)C[C@]3(C)[C@H]1CC2 [Compound 13, (2R,5S,8S,9S,10S,13S,14S)-2-bromo-10,13-dimethyltetradecahydro-1H-cyclopenta[a]phenanthren-3(2H)-one]
- inhibition of hGOAT octanoylation activity (in words) (hGOAT [1]): unable to support inhibition

- inhibition of hGOAT octanoylation activity (in words) (hGOAT [1]): abrogates inhibition of hGOAT
SMILES: CC(C)CCC[C@@H](C)[C@H]1CC[C@H]2[C@@H]3CCC4=CC(=O)CC[C@]4(C)[C@H]3CC[C@]12C [Compound 14, (8S,9S,10R,13R,14S,17R)-10,13-dimethyl-17-((R)-6-methylheptan-2-yl)-6,7,8,9,10,11,12,13,14,15,16,17-dodecahydro-1H-cyclopenta[a]phenanthren-3(2H)-one]

SMILES: N#CC1=CCCCC1=O [Compound 16, 6-oxocyclohex-1-enecarbonitrile]
- IC50 (hGOAT [1]; read-out: IC50, inhibition of hGOAT): 1200 ± 200 µM

- IC50 (hGOAT [1]; [6]): 500 ± 100 µM
SMILES: O=C1CCCC=C1Br [Compound 17, 2-bromocyclohex-2-enone]

SMILES: O=C1C=CCCC1 [Compound 18, cyclohexenone, reference compound]
- inhibition of hGOAT activity (in words) (hGOAT [1]; at concentrations up to 1 mM): does not inhibit hGOAT activity

SMILES: CCN1C(=O)C=CC1=O [NEM, N-ethylmaleimide]
- inhibition of hGOAT octanoylation activity (in words) (hGOAT [1]): efficiently inhibits hGOAT
- reversibility of hGOAT inhibition (hGOAT [2]): classical irreversible hGOAT inhibition

- inhibition of hGOAT acylation activity (in words) (hGOAT [1]; at concentrations up to 100 (unit not given)): fails to inhibit
SMILES: CC1(C)CC[C@]2(C)CC=C3[C@]4(C)CC[C@H]5C(C)(C)[C@@H](O)CC[C@]5(C)[C@H]4CC[C@@]3(C)[C@@H]2C1 [Taraxerol, taraxerol, reference compound]

SMILES: CC1(C)CC[C@]2(C(=O)O)CC[C@]3(C)C(=CC[C@@H]4[C@@]5(C)CC[C@H](O)C(C)(C)[C@@H]5CC[C@]43C)[C@@H]2C1 [oleanic acid, reference compound]
- inhibition of hGOAT activity (in words) (hGOAT [1]; at concentrations up to 100 μM): negligible inhibition

- inhibition of hGOAT activity (in words) (hGOAT [1]; at concentrations up to 100 μM): negligible inhibition
SMILES: C[C@H]1[C@H](C)CC[C@]2(C(=O)O)CC[C@]3(C)C(=CC[C@@H]4[C@@]5(C)CC[C@H](O)C(C)(C)[C@@H]5CC[C@]43C)[C@H]12 [ursolic acid, reference compound]
